Measurements from patent US20090088380A1, “GHRH ANALOGS AND THERAPEUTIC USES THEREOF” (priority 2007, published 2009).
Where “and” joins values, the source holds several entries; their conditions need not be identical. Identical values can stand only once. Non-standard residues stand in square brackets, D forms with d. Residues, ends and D or L forms follow the SMILES beside them.

Assays:
[1] = system: malnourished subjects with CKD; assay: Phase II CKD: adverse events; format: in vivo, human; settings: 28 days
Description: The number and nature of AEs was consistent with subjects with chronic renal failure. Although the number of AEs reported by subjects in the GHRH(1-29)NH2 synthetic analog group was higher than the number reported by subjects in the placebo group (70 vs. 58), there was no clear pattern to distinguish the treatments from each other in safety terms. This might be partly due to the relatively low number of subjects in the study but, overall, the 2 groups were generally balanced with respect to the nature and incidence of AEs.

in vivo = settings: Sprague-Dawley, rat
Method: No mortality, adverse clinical sign, effects on body weight, food consumption, opthalmology, haematology, coagulation, clinical chemistry, urinalysis, organ weights, macroscopic or microscopic observations were noted following the dosing or recovery periods. The no adverse effect level for this study was determined to be 3 mg/kg body weight.

[2] = system: malnourished subjects with CKD; assay: Phase II CKD: vital signs; format: in vivo, human; settings: for Diastolic blood pressure: mean (SD) / Heart rate: mean (SD) / Systolic blood pressure: mean (SD): Safety Analysis Set
Description: Mean systolic blood pressure was lower at Day 28 compared with baseline in the GHRH(1-29)NH2 synthetic analog group but higher compared with baseline in the placebo group (Table 37). […] Similarly, mean diastolic blood pressure was lower at Day 28 compared with baseline in the GHRH(1-29)NH2 synthetic analog group but this was not part of a trend.

protein turnover = assay: Phase II, malnourished CKD subjects, 1 mg sc twice daily 28 days: 13C-leucine kinetics (protein turnover); format: in vivo, human; settings: for Leucine oxidation: adjusted mean difference (analog-placebo): Day 28; for Leucine flux: mean (SD): normalised with body weight
Method: This was a randomized, double-blind, placebo-controlled, parallel-group, multi-centre study of the GHRH(1-29)NH2 synthetic analog in malnourished subjects with CKD. Twenty-six subjects were required to complete the study.
All study subjects were randomised in equal numbers to receive active GHRH(1-29)NH2 synthetic analog or an equivalent volume of placebo, by sc injection, twice daily for 28 days.
Vials of investigational product contained 1.4 mg of the GHRH(1-29)NH2 synthetic analog. This was reconstituted with 0.7 mL of water for injection and 0.5 mL of the resultant solution (1.0 mg of active substance) was administered, i.e. approximately 15 μg/kg. The diluent, water for injections, was obtained from commercial stock and labelled accordingly.
Leucine kinetics was measured on Day 0 and Day 29 by a primed-constant infusion technique during substrate and isotopic steady state. The priming dose consisted of 4.0 μmol/kg of L[1−^13C] leucine and 0.11 mg/kg of NaH^13CO3 and a sustaining infusion rate of L[1−^13C] leucine of 4.0 μmol/kg/h for 4 hours. The isotopes were purchased directly from Cambridge Isotope Laboratories.
A 1 mL sample of venous blood was taken before administration of the dose of isotope and at 180, 195, 210, 225 and 240 minutes after the start of infusion.
Breath samples were provided by blowing through a straw into Exetainer® tubes (evacuated 139 B blue tops). Breath samples were collected before the dose of isotope and at 180, 195, 210, 225 and 240 minutes after the start of infusion. Duplicate samples were collected. One sample was sent for analysis; the other was retained in case of loss or breakage. All retained samples were destroyed once the database was locked.

[3] = system: malnourished subjects with CKD; assay: Phase II CKD: abnormal and clinically significant clinical chemistry and blood gas values; format: in vivo, human; settings: for Subjects with abnormal and clinically significant ALT (%) / Subjects with abnormal and clinically significant AST (%) / Subjects with abnormal and clinically significant Calcium (%) / Subjects with abnormal and clinically significant Chloride (%) / Subjects with abnormal and clinically significant Creatinine (%) / Subjects with abnormal and clinically significant GGT (%) / Subjects with abnormal and clinically significant Phosphate (%) / Subjects with abnormal and clinically significant Potassium (%) / Subjects with abnormal and clinically significant Sodium (%) / Subjects with abnormal and clinically significant Urea (%): safety analysis set
Description: The number of subjects with abnormal and clinically significant laboratory values at baseline and at Day 28 is presented in Table 35 (haematology) and Table 36 clinical chemistry. Overall, the number of subjects with abnormal and clinically significant laboratory values was similar in the GHRH(1-29)NH2 synthetic analog and placebo groups. No clear trends were observed.

[4] = ITT, Baseline, listed as GHRH(1-29)NH2 synthetic analog
[5] = ITT, listed as GHRH(1-29)NH2 synthetic analog

Compound: CC[C@H](C)[C@H](NC(=O)[C@H](C)NC(=O)[C@H](CC(=O)O)NC(=O)[C@@H](C)NC(=O)[C@@H](N)Cc1ccc(O)cc1)C(=O)N[C@@H](Cc1ccccc1)C(=O)N[C@H](C(=O)N[C@@H](CC(N)=O)C(=O)N[C@@H](CO)C(=O)N[C@H](Cc1ccc(O)cc1)C(=O)N[C@@H](CCCNC(=N)N)C(=O)N[C@@H](CCCCN)C(=O)N[C@H](C(=O)N[C@@H](CC(C)C)C(=O)N[C@H](C)C(=O)N[C@@H](CCC(N)=O)C(=O)N[C@@H](CC(C)C)C(=O)N[C@@H](CO)C(=O)N[C@@H](C)C(=O)N[C@@H](CCCNC(=N)N)C(=O)N[C@@H](CCCCN)C(=O)N[C@@H](CCCCN)C(=O)N[C@@H](CC(C)C)C(=O)N[C@@H](CCC(N)=O)C(=O)N[C@@H](CC(=O)O)C(=O)N[C@H](C(=O)N[C@@H](CCSC)C(=O)N[C@@H](CO)C(=O)N[C@@H](CCCNC(=N)N)C(N)=O)[C@@H](C)CC)C(C)C)[C@@H](C)O [GHRH analog #5, [D-Ala^2, D-Tyr^10, D-Ala^15, Lys^22] hGHRH(1-29)-NH2] (H-Y[dA]DAIFTNS[dY]RKVL[dA]QLSARKKLQDIMSR-NH2)
- Number of AEs reported [1]: 70
- NOAEL at 672 h (in vivo): 3 mg/kg
- Mean systolic blood pressure ([2]; Day 7): 136.4 mmHg
- Mean systolic blood pressure ([2]; Day 14): 139.9 mmHg
- Mean systolic blood pressure ([2]; Day 21): 143.1 mmHg
- Diastolic blood pressure: mean (SD) ([2]; Baseline): 82.7 (10.9) mmHg
- Heart rate: mean (SD) ([2]; Baseline): 77.7 (11.1) bpm
- Systolic blood pressure: mean (SD) ([2]; Baseline): 144.8 (16.0) mmHg
- Diastolic blood pressure: mean (SD) ([2]; Day 28): 76.7 (8.1) mmHg
- Heart rate: mean (SD) ([2]; Day 28): 76.4 (9.8) bpm
- Systolic blood pressure: mean (SD) ([2]; Day 28): 128.3 (16.5) mmHg
- Mean systolic blood pressure ([2]; screening): 142.0 mmHg
- Leucine flux: mean (SD) change from baseline to Day 28 (protein turnover; ITT): 1.15 (30.09) μmol/kg · hr
- Leucine flux: median change from baseline to Day 28 (protein turnover; ITT): -0.4 µmol/kg/h
- Leucine oxidation: mean (SD) change from baseline to Day 28 (protein turnover; ITT): 2.38 (5.66) μmol/kg · hr
- Leucine oxidation: median change from baseline to Day 28 (protein turnover; ITT): 2.3 µmol/kg/h
- Oxidation of flux: mean (SD) change from baseline to Day 28 (protein turnover; ITT): 2.64 (6.26) %
- Oxidation of flux: median change from baseline to Day 28 (protein turnover; ITT): 3.8%
- Protein breakdown: mean (SD) change from baseline to Day 28 (protein turnover; ITT): 1.16 (30.11) μmol/kg · hr
- Protein breakdown: median change from baseline to Day 28 (protein turnover; ITT): -0.4 µmol/kg/h
- Protein synthesis of flux: mean (SD) change from baseline to Day 28 (protein turnover; ITT): −2.64 (6.26) %
- Protein synthesis of flux: median change from baseline to Day 28 (protein turnover; ITT): −3.8%
- Protein synthesis: mean (SD) change from baseline to Day 28 (protein turnover; ITT): −1.22 (30.75) μmol/kg · hr
- Protein synthesis: median change from baseline to Day 28 (protein turnover; ITT): -4.6 µmol/kg/h
- Leucine flux: median (protein turnover; ITT, Baseline): 98.3 µmol/kg/h
- Leucine oxidation: mean (SD) (protein turnover; ITT, Baseline): 7.74 μmol/kg · hr and 7.74 (4.51) μmol/kg · hr
- Leucine oxidation: median (protein turnover; ITT, Baseline): 5.8 µmol/kg/h
- Oxidation of flux: mean (SD) (protein turnover; ITT, Baseline): 7.61 (4.19) %
- Oxidation of flux: median (protein turnover; ITT, Baseline): 6.9%
- Protein breakdown: mean (SD) (protein turnover; ITT, Baseline): 97.45 (21.53) μmol/kg · hr
- Protein breakdown: median (protein turnover; ITT, Baseline): 94.2 µmol/kg/h
- Protein synthesis of flux: mean (SD) (protein turnover; ITT, Baseline): 92.39 (4.19) %
- Protein synthesis of flux: median (protein turnover; ITT, Baseline): 93.1%
- Protein synthesis: mean (SD) (protein turnover; ITT, Baseline): 93.71 (20.38) μmol/kg · hr
- Protein synthesis: median (protein turnover; ITT, Baseline): 88.9 µmol/kg/h
- Leucine oxidation: mean (SD) (protein turnover; [4]): 7.74 µmol/kg/h
- Protein breakdown: mean (SD) (protein turnover; [4]): 97.45 µmol/kg/h
- Protein synthesis: mean (SD) (protein turnover; [4]): 93.71 µmol/kg/h
- Leucine oxidation: adjusted mean difference (analog-placebo) (protein turnover; ITT): 1.1 μmol/kg · hr
- Leucine flux: mean (SD) change from baseline to Day 28 (protein turnover; [5]): 1.15 µmol/kg/h
- Leucine oxidation: mean (SD) change from baseline to Day 28 (protein turnover; [5]): 2.38 µmol/kg/h
- Protein breakdown: mean (SD) change from baseline to Day 28 (protein turnover; [5]): 1.16 µmol/kg/h
- Protein synthesis of flux: median change from baseline to Day 28 (protein turnover; [5]): -3.8%
- Protein synthesis: mean (SD) change from baseline to Day 28 (protein turnover; [5]): -1.22 µmol/kg/h
- Leucine flux: mean (SD) (protein turnover; ITT, Baseline): 101.46 (21.54) μmol/kg · hr
- Leucine flux: mean (SD) (protein turnover; [4]): 101.46 µmol/kg/h
- Leucine flux: adjusted mean difference (protein turnover; ITT, vs placebo): 7.5 µmol/kg/h
- Protein breakdown: adjusted mean difference (protein turnover; ITT, vs placebo): 7.5 µmol/kg/h
- Protein synthesis: adjusted mean difference (protein turnover; ITT, vs placebo): 6.9 µmol/kg/h
- Oxidation of flux: adjusted mean difference (protein turnover; ITT, vs placebo, ANCOVA assuming log-normal distribution): 1.48%
- Leucine oxidation: mean (SD) change from baseline to Day 28 (protein turnover; PP (Leucine Kinetic)): 1.90 (6.24) μmol/kg · hr
- Leucine oxidation: median change from baseline to Day 28 (protein turnover; PP (Leucine Kinetic)): 2.3 µmol/kg/h
- Leucine oxidation: mean (SD) (protein turnover; PP (Leucine Kinetic), Baseline): 7.81 (5.42) μmol/kg · hr
- Leucine oxidation: median (protein turnover; PP (Leucine Kinetic), Baseline): 5.6 µmol/kg/h
- Leucine oxidation: adjusted mean difference (analog-placebo) (protein turnover; PP (Leucine Kinetic)): 3.3 μmol/kg · hr
- Subjects with abnormal and clinically significant ALT (%) ([3]; Baseline): (0.0%)
- Subjects with abnormal and clinically significant AST (%) ([3]; Baseline): (0.0%)
- Subjects with abnormal and clinically significant Calcium (%) ([3]; Baseline): (0.0%)
- Subjects with abnormal and clinically significant Chloride (%) ([3]; Baseline): (0.0%)
- Subjects with abnormal and clinically significant Creatinine (%) ([3]; Baseline): (100.0%)
- Subjects with abnormal and clinically significant GGT (%) ([3]; Baseline): (0.0%)
- Subjects with abnormal and clinically significant Phosphate (%) ([3]; Baseline): (7.7%)
- Subjects with abnormal and clinically significant Potassium (%) ([3]; Baseline): (30.8%)
- Subjects with abnormal and clinically significant Sodium (%) ([3]; Baseline): (0.0%)
- Subjects with abnormal and clinically significant Urea (%) ([3]; Baseline): (100.0%)
- Number of subjects with abnormal and clinically significant bicarbonate ([3]; Day 28): 3 subjects
- Number of subjects with abnormal and clinically significant calcium ([3]; Day 28): 3 subjects
- Subjects with abnormal and clinically significant ALT (%) ([3]; Day 28): (8.3%)
- Subjects with abnormal and clinically significant AST (%) ([3]; Day 28): (8.3%)
- Subjects with abnormal and clinically significant Calcium (%) ([3]; Day 28): (25.0%)
- Subjects with abnormal and clinically significant Chloride (%) ([3]; Day 28): (0.0%)
- Subjects with abnormal and clinically significant Creatinine (%) ([3]; Day 28): (100.0%)
- Subjects with abnormal and clinically significant GGT (%) ([3]; Day 28): (8.3%)
- Subjects with abnormal and clinically significant Phosphate (%) ([3]; Day 28): (16.7%)
- Subjects with abnormal and clinically significant Potassium (%) ([3]; Day 28): (25.0%)
- Subjects with abnormal and clinically significant Sodium (%) ([3]; Day 28): (0.0%)
- Subjects with abnormal and clinically significant Urea (%) ([3]; Day 28): (100.0%)
- Number of subjects with abnormal and clinically significant bicarbonate ([3]; baseline): 2 subjects
- Number of subjects with abnormal and clinically significant calcium ([3]; baseline): none
